Data: PubChem BioAssay AID256 (DTP/NCI, 2004)
Values joined by “and” are separate entries in the source; they are usually repeats but may differ in a detail not shown here. Identical values can stand only once. Inconclusive results and toxic doses are left out. Rule for the calls: active = survival T/C of 150% or more; inactive = T/C below 125% in these data.

Tested on: CD2F1 mice, L1210 leukemia ip, survival T/C
Assay: NCI In Vivo Anticancer Drug Screen. Data for tumor model L1210 Leukemia (intraperitoneal) in CD2F1 (CDF1) mice
Details: endpoint: mean survival time, higher = longer survival
In short: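 Activity against a transplanted murine tumor was judged by comparing the compound group with a vehicle group. The outcome in the treated animals was divided by that in the controls.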

[1] = dose: 50.0 mg/kg/injection, schedule: Q01DX009 (ip), vehicle: saline with Tween-80
[2] = dose: 100.0 mg/kg/injection, schedule: Q01DX009 (ip), vehicle: saline with Tween-80
[3] = dose: 100.0 mg/kg/injection, schedule: Q04DX002 (ip), vehicle: saline with Tween-80
[4] = dose: 100.0 mg/kg/injection, schedule: Q04DX003 (ip), vehicle: saline with Tween-80
[5] = dose: 200.0 mg/kg/injection, schedule: Q01DX009 (ip), vehicle: saline with Tween-80
[6] = dose: 200.0 mg/kg/injection, schedule: Q04DX003 (ip), vehicle: saline with Tween-80
[7] = dose: 400.0 mg/kg/injection, schedule: Q04DX003 (ip), vehicle: saline with Tween-80
[8] = dose: 400.0 mg/kg/injection, schedule: Q01DX009 (ip), vehicle: saline with Tween-80
[9] = dose: 100.0 mg/kg/injection, schedule: Q04DX003 (ip), vehicle: saline + alcohol
[10] = dose: 200.0 mg/kg/injection, schedule: Q04DX003 (ip), vehicle: saline + alcohol
[11] = dose: 400.0 mg/kg/injection, schedule: Q04DX003 (ip), vehicle: saline + alcohol
[12] = dose: 100.0 mg/kg/injection, schedule: Q01DX001 (ip), vehicle: saline
[13] = dose: 100.0 mg/kg/injection, schedule: Q04DX003 (ip), vehicle: saline
[14] = dose: 200.0 mg/kg/injection, schedule: Q01DX001 (ip), vehicle: saline
[15] = dose: 200.0 mg/kg/injection, schedule: Q04DX003 (ip), vehicle: saline
[16] = dose: 400.0 mg/kg/injection, schedule: Q01DX001 (ip), vehicle: saline
[17] = dose: 400.0 mg/kg/injection, schedule: Q04DX003 (ip), vehicle: saline
[18] = dose: 50.0 mg/kg/injection, schedule: Q04DX003 (ip), vehicle: saline with Tween-80

Measured: T/C

CCOC(=O)c1ccc(NC(=O)N(C)C2CCCCC2)cc1
inactive: [1] 95 % of control and 102 % of control | [2] 100 % of control and 104 % of control | [3] 91 % of control and 92 % of control | [4] 92 % of control | [5] 100 % of control and 104 % of control | dose: 200.0 mg/kg/injection, schedule: Q04DX002 (ip), vehicle: saline with Tween-80 92 % of control and 109 % of control | [6] 96 % of control | dose: 400.0 mg/kg/injection, schedule: Q04DX002 (ip), vehicle: saline with Tween-80 102 % of control | [7] 91 % of control

COc1ccc2c(ccc[n+]2C)c1
inactive: dose: 5.0 mg/kg/injection, schedule: Q01DX009 (ip), vehicle: saline 106 % of control | dose: 5.0 mg/kg/injection, schedule: Q04DX003 (ip), vehicle: saline 103 % of control | dose: 10.0 mg/kg/injection, schedule: Q01DX009 (ip), vehicle: saline 107 % of control | dose: 10.0 mg/kg/injection, schedule: Q04DX003 (ip), vehicle: saline 101 % of control | dose: 12.5 mg/kg/injection, schedule: Q01DX009 (ip), vehicle: alcohol 107 % of control | dose: 12.5 mg/kg/injection, schedule: Q04DX003 (ip), vehicle: acetone 104 % of control | dose: 20.0 mg/kg/injection, schedule: Q01DX009 (ip), vehicle: saline 106 % of control | dose: 20.0 mg/kg/injection, schedule: Q04DX003 (ip), vehicle: saline 109 % of control | dose: 25.0 mg/kg/injection, schedule: Q01DX009 (ip), vehicle: alcohol 116 % of control | dose: 25.0 mg/kg/injection, schedule: Q04DX003 (ip), vehicle: acetone 106 % of control | dose: 50.0 mg/kg/injection, schedule: Q04DX003 (ip), vehicle: acetone 106 % of control

CCCc1cc(OC)ccc1O
inactive: [2] 96 % of control | [4] 96 % of control | [5] 100 % of control | [6] 94 % of control | [8] 100 % of control | [7] 103 % of control

CC1CCC(N=C2OCCN2N=O)CC1 (configuration not stated)
inactive: dose: 3.12 mg/kg/injection, schedule: Q01DX001 (ip), vehicle: water 97 % of control | dose: 6.25 mg/kg/injection, schedule: Q01DX001 (ip), vehicle: water 96 % of control | dose: 12.5 mg/kg/injection, schedule: Q01DX001 (ip), vehicle: water 98 % of control | dose: 25.0 mg/kg/injection, schedule: Q01DX001 (ip), vehicle: water 94 % of control | dose: 50.0 mg/kg/injection, schedule: Q01DX001 (ip), vehicle: water 94 % of control | dose: 100.0 mg/kg/injection, schedule: Q01DX001 (ip), vehicle: water 108 % of control

CC1=NN(c2cccc(S(=O)(=O)O)c2)C(=O)C1Cl (configuration not stated)
inactive: [1] 98 % of control | [2] 95 % of control | [5] 95 % of control

Cn1c(=O)c2c(ncn2CCSS(=O)(=O)O)n(C)c1=O
inactive: dose: 12.5 mg/kg/injection, schedule: Q01DX005 (ip), vehicle: water 100 % of control | dose: 25.0 mg/kg/injection, schedule: Q01DX005 (ip), vehicle: water 94 % of control | dose: 50.0 mg/kg/injection, schedule: Q01DX005 (ip), vehicle: water 102 % of control | dose: 100.0 mg/kg/injection, schedule: Q01DX005 (ip), vehicle: water 100 % of control | dose: 200.0 mg/kg/injection, schedule: Q01DX005 (ip), vehicle: water 98 % of control

Cc1ccc([N+](=O)[O-])cc1NC(=O)C(Cl)(Cl)Cl
inactive: [4] 93 % of control | [6] 93 % of control | [7] 107 % of control

O=C(Nc1ccccc1C(F)(F)F)c1cccc(Cl)c1
inactive: dose: 100.0 mg/kg/injection, schedule: Q01DX009 (ip), vehicle: saline + alcohol 90 % of control | [9] 97 % of control | dose: 200.0 mg/kg/injection, schedule: Q01DX009 (ip), vehicle: saline + alcohol 93 % of control | [10] 100 % of control | dose: 400.0 mg/kg/injection, schedule: Q01DX009 (ip), vehicle: saline + alcohol 96 % of control | [11] 95 % of control

S=C(S)NC1CCCCC1
inactive: dose: 6.0 mg/kg/injection, schedule: Q04DX003 (ip), vehicle: saline with Tween-80 98 % of control | dose: 12.0 mg/kg/injection, schedule: Q04DX003 (ip), vehicle: saline with Tween-80 102 % of control | dose: 24.0 mg/kg/injection, schedule: Q04DX003 (ip), vehicle: saline with Tween-80 94 % of control

O=C(O)CCC(=O)Nc1cccc(Oc2ccc([N+](=O)[O-])cc2[N+](=O)[O-])c1
inactive: dose: 100.0 mg/kg/injection, schedule: Q01DX009 (ip), vehicle: saline 94 % of control | dose: 200.0 mg/kg/injection, schedule: Q01DX009 (ip), vehicle: saline 94 % of control | dose: 400.0 mg/kg/injection, schedule: Q01DX009 (ip), vehicle: saline 100 % of control

O=S(=O)(OCC1CC2CCC1CC2)c1ccc(Br)cc1 (configuration not stated)
inactive: [2] 96 % of control | [4] 95 % of control | [5] 112 % of control | [6] 97 % of control | [8] 102 % of control | [7] 95 % of control

Cc1ccccc1N1OS(=O)(=O)CC1(C#N)c1ccccc1 (configuration not stated)
inactive: [12] 106 % of control | [13] 98 % of control | [14] 100 % of control | [15] 101 % of control | [16] 102 % of control | [17] 96 % of control

ClCCOC(c1ccc(Cl)cc1)c1ccc(Cl)cc1
inactive: [9] 96 % of control | [10] 94 % of control | [11] 100 % of control

CCOc1cc(/C=N/NC(=O)C[n+]2ccccc2)ccc1O
inactive: dose: 25.0 mg/kg/injection, schedule: Q01DX009 (ip), vehicle: saline with Tween-80 99 % of control | [1] 103 % of control | [2] 99 % of control

CC(C)=CCC/C(C)=C\CC1=C(O)c2ccccc2C(=O)C1=O
inactive: dose: 50.0 mg/kg/injection, schedule: Q01DX009 (ip), vehicle: other 96 % of control | dose: 100.0 mg/kg/injection, schedule: Q01DX009 (ip), vehicle: other 94 % of control | dose: 200.0 mg/kg/injection, schedule: Q01DX009 (ip), vehicle: other 95 % of control

CCCCCC(=O)N1CCCCCC1
inactive: [13] 96 % of control | [15] 98 % of control | [17] 98 % of control

O=Cc1nccc2c1[nH]c1ccccc12
inactive: [4] 95 % of control | [6] 104 % of control | [7] 100 % of control

CC(=O)N(C(C)=O)c1ccc2c3c(cccc13)CC2
inactive: [18] 110 % of control | [4] 104 % of control | [6] 101 % of control

CCCCN(Cl)CCCC
inactive: dose: 25.0 mg/kg/injection, schedule: Q04DX002 (ip), vehicle: saline with Tween-80 92 % of control | dose: 50.0 mg/kg/injection, schedule: Q04DX002 (ip), vehicle: saline with Tween-80 92 % of control | [3] 103 % of control

CCOC(OCC)c1cc(=O)[nH]c(N)n1
inactive: [12] 103 % of control | [14] 101 % of control | [16] 100 % of control

CCOc1ccccc1C(=O)OC(CN(CC)CC)c1ccccc1 (configuration not stated)
inactive: dose: 100.0 mg/kg/injection, schedule: Q04DX002 (ip), vehicle: saline 95 % of control | dose: 200.0 mg/kg/injection, schedule: Q04DX002 (ip), vehicle: saline 95 % of control

CNC(C1CCCCC1)C(C)OC(=O)c1ccc(N)cc1 (configuration not stated)
inactive: dose: 75.0 mg/kg/injection, schedule: Q01DX001 (ip), vehicle: saline 100 % of control

CC(=O)NC1C(OC(C)=O)OC(COC(c2ccccc2)(c2ccccc2)c2ccccc2)C(OS(C)(=O)=O)C1OC(C)=O (configuration not stated)
inactive: [18] 95 % of control | [4] 103 % of control | [6] 101 % of control | [7] 89 % of control

O=C(OCC1OC(n2cnc3cc(Cl)c(Cl)cc32)C(OC(=O)c2ccccc2)C1OC(=O)c1ccccc1)c1ccccc1 (configuration not stated)
inactive: dose: 12.5 mg/kg/injection, schedule: Q01DX005 (ip), vehicle: distilled water + Tween-80 95 % of control | dose: 25.0 mg/kg/injection, schedule: Q01DX005 (ip), vehicle: distilled water + Tween-80 101 % of control | dose: 50.0 mg/kg/injection, schedule: Q01DX005 (ip), vehicle: distilled water + Tween-80 93 % of control | dose: 100.0 mg/kg/injection, schedule: Q01DX005 (ip), vehicle: distilled water + Tween-80 95 % of control
